Experimental data from ChEMBL document CHEMBL5465560, “Selectivity Literature for EUbOPEN Chemogenomic Library” (2024).

How the values were obtained:
[1] = biological target: ALK tyrosine kinase receptor (Homo sapiens, UniProt Q9UM73); conditions: at 10 µM
[2] = biological target: Calcium/calmodulin-dependent protein kinase type II subunit alpha (Homo sapiens, UniProt Q9UQM7); conditions: at 10 µM
[3] = biological target: RAF proto-oncogene serine/threonine-protein kinase (Homo sapiens) (UniProt P04049); assay: Selectivity interaction (KinomeScan (DiscoverX)) EUB0000229b RAF1; conditions: at 10 µM
[4] = biological target: cAMP-dependent protein kinase catalytic subunit alpha (Homo sapiens, UniProt P17612); assay: Selectivity interaction (KinomeScan (DiscoverX)) EUB0000092b PRKACA; conditions: at 10 µM
[5] = biological target: Interleukin-1 receptor-associated kinase 1 (Homo sapiens) (UniProt P51617); assay: Selectivity interaction (KinomeScan (DiscoverX)) EUB0000092b IRAK1; conditions: at 10 µM
[6] = biological target: Calcium/calmodulin-dependent protein kinase type 1D (Homo sapiens) (UniProt Q8IU85); assay: Selectivity interaction (Kinase panel (DSF assay)) EUB0001559a CAMK1D
[7] = biological target: Serine/threonine-protein kinase PLK2 (Homo sapiens, UniProt Q9NYY3); assay: Selectivity interaction (KinomeScan (DiscoverX)) EUB0000666a PLK2; conditions: at 10 µM
[8] = biological target: Cyclin-dependent kinase-like 1 (Homo sapiens) (UniProt Q00532); assay: Selectivity interaction (KinomeScan (DiscoverX)) EUB0000666a CDKL1; conditions: at 10 µM
[9] = biological target: Tyrosine-protein kinase ABL1 (Homo sapiens, UniProt P00519); conditions: at 10 µM
[10] = biological target: Homeodomain-interacting protein kinase 2 (Homo sapiens, UniProt Q9H2X6); assay: Selectivity interaction (Kinase panel (Invitrogen)) EUB0000639a HIPK2; conditions: at 200 nM
D(2) dopamine receptor = D(2) dopamine receptor (Homo sapiens, UniProt P14416); assay: Selectivity interaction (Panel of kinases, GPCRs, ion channels and transporters (enzymatic assay)) EUB0000223bCl DRD2
[11] = biological target: Calcium/calmodulin-dependent protein kinase type II subunit beta (Homo sapiens) (UniProt Q13554); assay: Selectivity interaction (KinomeScan (DiscoverX)) EUB0000607a CAMK2B; conditions: at 10 µM
[12] = biological target: Mitogen-activated protein kinase 3 (Homo sapiens, UniProt P27361); assay: Selectivity interaction (KinomeScan (DiscoverX)) EUB0000695a MAPK3; conditions: at 100 nM
[13] = biological target: Mitogen-activated protein kinase 11 (Homo sapiens) (UniProt Q15759); assay: Selectivity interaction (KinomeScan (DiscoverX)) EUB0000695a MAPK11; conditions: at 100 nM
[14] = biological target: Calcium/calmodulin-dependent protein kinase type 1D (Homo sapiens) (UniProt Q8IU85); assay: Selectivity interaction (KinomeScan (DiscoverX)) EUB0000595a CAMK1D; conditions: at 10 µM
[15] = biological target: T1, Serine/threonine-protein kinase TAO1 (Homo sapiens) (UniProt Q7L7X3); assay: Selectivity interaction (KinomeScan (DiscoverX)) EUB0000045b TAOK1
T1 sequence (whole entry): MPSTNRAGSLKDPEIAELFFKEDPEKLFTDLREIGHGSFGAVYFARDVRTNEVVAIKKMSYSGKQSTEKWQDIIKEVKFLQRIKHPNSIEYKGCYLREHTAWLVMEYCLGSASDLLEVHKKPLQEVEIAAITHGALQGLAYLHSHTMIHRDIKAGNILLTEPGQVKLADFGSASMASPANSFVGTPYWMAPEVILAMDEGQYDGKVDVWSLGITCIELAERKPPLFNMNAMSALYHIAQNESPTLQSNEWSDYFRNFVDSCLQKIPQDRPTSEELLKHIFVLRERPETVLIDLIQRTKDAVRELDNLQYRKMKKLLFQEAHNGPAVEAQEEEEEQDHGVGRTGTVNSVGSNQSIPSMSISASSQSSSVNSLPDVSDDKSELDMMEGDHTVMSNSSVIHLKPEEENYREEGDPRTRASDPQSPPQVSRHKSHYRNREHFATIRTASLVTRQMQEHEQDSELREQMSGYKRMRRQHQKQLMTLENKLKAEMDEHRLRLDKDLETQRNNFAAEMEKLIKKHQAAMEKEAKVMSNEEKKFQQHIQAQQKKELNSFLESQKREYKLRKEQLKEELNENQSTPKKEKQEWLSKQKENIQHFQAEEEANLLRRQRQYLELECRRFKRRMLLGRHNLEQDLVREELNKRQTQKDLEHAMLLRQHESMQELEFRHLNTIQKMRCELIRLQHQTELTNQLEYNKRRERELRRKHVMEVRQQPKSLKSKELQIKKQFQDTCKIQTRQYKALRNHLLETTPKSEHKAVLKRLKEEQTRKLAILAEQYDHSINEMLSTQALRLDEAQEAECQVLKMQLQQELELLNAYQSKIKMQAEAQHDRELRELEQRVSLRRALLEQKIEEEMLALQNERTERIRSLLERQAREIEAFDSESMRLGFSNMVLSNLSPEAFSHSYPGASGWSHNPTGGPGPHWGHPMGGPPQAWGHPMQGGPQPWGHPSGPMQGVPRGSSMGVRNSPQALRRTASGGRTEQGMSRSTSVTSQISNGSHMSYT

[16] = biological target: Calcium/calmodulin-dependent protein kinase kinase 1 (Homo sapiens) (UniProt Q8N5S9); assay: Selectivity interaction (KinomeScan (DiscoverX)) EUB0000045b CAMKK1
[17] = biological target: Serine/threonine-protein kinase PAK 2 (Homo sapiens) (UniProt Q13177); assay: Selectivity interaction (Kinase panel (Eurofins)) EUB0001564a PAK2; conditions: at 1 µM
[18] = biological target: Mitogen-activated protein kinase kinase kinase 14 (Homo sapiens) (UniProt Q99558); assay: Selectivity interaction (Ambit KINOMEscan and KiNATiv profiling in Jurkat cells) EUB0000090b MAP3K14; format: cell-based; conditions: at 1 µM
Mitogen-activated protein kinase kinase kinase 14 (Homo sapiens), sequence (Q99558 whole entry, looked up): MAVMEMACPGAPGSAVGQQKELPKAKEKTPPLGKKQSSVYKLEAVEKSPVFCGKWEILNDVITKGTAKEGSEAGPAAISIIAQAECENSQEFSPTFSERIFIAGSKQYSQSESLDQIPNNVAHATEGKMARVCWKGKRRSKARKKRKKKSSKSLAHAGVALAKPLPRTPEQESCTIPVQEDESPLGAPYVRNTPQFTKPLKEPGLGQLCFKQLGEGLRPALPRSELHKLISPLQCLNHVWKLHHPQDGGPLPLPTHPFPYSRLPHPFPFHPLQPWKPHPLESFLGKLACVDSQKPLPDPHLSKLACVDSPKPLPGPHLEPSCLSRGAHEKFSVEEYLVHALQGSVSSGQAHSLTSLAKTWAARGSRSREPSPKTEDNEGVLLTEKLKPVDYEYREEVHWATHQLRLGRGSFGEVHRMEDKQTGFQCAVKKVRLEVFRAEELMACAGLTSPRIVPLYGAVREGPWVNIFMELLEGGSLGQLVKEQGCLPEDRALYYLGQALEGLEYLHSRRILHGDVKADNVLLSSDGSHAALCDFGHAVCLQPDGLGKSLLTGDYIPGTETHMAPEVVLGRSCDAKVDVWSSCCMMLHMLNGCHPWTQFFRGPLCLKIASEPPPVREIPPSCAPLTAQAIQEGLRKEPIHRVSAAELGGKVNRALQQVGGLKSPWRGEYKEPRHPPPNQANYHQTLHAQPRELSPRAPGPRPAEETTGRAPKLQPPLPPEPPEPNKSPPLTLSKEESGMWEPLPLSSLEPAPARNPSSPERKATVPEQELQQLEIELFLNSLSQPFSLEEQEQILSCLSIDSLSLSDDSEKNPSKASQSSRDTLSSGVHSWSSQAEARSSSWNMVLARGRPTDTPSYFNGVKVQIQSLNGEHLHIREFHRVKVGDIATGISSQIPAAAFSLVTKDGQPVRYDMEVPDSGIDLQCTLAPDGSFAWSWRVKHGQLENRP

Calcium/calmodulin-dependent protein kinase kinase 1 (Homo sapiens), sequence (Q8N5S9 whole entry, looked up): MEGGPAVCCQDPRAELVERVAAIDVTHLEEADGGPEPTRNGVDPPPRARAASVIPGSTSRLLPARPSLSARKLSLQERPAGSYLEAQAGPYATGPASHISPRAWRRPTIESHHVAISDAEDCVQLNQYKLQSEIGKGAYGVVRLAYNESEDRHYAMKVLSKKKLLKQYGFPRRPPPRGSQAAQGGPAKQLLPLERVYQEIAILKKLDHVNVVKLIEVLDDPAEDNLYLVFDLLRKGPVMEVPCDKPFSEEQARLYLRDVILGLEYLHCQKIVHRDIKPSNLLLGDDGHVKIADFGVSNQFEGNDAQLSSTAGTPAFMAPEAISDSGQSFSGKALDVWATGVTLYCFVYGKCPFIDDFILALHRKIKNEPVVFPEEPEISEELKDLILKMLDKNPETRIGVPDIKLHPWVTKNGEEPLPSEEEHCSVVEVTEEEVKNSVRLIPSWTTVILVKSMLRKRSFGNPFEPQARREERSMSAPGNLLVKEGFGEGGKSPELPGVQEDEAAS
Calcium/calmodulin-dependent protein kinase type 1D (Homo sapiens), sequence (Q8IU85 whole entry, looked up): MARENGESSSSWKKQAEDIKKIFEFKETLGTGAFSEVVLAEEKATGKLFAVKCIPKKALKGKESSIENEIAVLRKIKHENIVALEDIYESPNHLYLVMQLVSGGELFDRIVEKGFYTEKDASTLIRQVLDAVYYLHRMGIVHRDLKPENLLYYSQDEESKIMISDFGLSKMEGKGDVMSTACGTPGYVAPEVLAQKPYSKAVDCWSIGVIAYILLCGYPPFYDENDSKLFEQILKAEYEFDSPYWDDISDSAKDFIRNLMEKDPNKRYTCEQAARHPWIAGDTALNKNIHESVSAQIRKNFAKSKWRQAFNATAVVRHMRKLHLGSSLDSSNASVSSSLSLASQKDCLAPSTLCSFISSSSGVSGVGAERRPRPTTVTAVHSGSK
Interleukin-1 receptor-associated kinase 1 (Homo sapiens), sequence (P51617 whole entry, looked up): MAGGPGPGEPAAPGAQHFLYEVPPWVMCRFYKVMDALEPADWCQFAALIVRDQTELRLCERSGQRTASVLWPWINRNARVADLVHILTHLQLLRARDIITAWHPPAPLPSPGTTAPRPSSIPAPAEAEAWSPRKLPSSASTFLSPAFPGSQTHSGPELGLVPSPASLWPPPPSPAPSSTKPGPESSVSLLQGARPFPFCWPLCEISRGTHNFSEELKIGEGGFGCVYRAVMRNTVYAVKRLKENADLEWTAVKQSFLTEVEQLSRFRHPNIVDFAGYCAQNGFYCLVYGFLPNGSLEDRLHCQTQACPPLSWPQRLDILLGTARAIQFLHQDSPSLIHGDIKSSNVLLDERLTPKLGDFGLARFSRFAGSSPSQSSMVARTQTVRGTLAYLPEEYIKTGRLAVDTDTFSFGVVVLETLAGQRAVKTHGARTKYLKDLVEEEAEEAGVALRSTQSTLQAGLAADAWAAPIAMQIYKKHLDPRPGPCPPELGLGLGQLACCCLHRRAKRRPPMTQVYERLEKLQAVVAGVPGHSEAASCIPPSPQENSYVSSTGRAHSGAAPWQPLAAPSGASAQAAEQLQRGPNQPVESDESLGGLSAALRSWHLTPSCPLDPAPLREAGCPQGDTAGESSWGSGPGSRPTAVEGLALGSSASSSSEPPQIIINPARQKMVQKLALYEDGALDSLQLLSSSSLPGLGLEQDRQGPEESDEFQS
Calcium/calmodulin-dependent protein kinase type II subunit beta (Homo sapiens), sequence (Q13554 whole entry): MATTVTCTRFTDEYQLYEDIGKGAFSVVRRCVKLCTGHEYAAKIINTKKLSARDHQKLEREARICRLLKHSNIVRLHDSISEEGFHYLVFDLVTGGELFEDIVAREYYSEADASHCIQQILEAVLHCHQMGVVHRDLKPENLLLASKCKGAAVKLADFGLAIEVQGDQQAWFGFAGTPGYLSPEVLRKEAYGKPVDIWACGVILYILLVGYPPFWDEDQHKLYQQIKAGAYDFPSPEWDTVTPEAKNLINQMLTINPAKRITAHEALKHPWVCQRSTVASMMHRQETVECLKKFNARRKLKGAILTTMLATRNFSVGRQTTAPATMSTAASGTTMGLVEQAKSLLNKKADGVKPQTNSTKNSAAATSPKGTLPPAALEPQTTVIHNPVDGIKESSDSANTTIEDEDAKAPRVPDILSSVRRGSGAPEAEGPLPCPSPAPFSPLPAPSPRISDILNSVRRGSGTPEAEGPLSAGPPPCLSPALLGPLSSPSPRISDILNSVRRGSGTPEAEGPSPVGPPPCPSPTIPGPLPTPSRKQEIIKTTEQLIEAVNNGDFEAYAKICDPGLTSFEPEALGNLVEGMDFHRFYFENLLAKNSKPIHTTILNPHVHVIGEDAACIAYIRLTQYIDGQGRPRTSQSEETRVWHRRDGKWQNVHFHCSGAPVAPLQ
Calcium/calmodulin-dependent protein kinase type II subunit alpha, sequence (Q9UQM7 whole entry): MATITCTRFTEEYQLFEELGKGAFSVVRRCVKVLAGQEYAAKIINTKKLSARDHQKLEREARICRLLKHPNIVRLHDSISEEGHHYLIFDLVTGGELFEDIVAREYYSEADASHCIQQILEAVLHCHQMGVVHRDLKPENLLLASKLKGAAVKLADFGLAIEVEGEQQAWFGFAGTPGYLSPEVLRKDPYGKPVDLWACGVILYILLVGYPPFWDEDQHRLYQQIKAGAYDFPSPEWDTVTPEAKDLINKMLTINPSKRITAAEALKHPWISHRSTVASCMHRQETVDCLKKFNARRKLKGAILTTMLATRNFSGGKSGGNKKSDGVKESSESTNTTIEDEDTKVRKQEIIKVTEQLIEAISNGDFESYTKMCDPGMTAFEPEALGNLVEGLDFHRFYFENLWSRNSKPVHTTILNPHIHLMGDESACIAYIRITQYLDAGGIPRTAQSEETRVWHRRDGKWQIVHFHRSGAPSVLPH
Mitogen-activated protein kinase 3, sequence (P27361 whole entry): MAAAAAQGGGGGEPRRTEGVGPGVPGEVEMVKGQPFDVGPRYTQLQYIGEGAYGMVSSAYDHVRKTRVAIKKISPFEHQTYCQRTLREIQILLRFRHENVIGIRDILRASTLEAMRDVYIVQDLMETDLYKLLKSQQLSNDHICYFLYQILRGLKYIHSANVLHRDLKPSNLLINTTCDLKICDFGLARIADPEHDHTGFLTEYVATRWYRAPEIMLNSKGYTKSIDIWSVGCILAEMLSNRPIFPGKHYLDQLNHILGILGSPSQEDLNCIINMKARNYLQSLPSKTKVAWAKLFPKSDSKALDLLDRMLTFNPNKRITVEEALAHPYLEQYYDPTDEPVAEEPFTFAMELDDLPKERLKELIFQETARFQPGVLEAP
Serine/threonine-protein kinase PLK2, sequence (Q9NYY3 whole entry, looked up): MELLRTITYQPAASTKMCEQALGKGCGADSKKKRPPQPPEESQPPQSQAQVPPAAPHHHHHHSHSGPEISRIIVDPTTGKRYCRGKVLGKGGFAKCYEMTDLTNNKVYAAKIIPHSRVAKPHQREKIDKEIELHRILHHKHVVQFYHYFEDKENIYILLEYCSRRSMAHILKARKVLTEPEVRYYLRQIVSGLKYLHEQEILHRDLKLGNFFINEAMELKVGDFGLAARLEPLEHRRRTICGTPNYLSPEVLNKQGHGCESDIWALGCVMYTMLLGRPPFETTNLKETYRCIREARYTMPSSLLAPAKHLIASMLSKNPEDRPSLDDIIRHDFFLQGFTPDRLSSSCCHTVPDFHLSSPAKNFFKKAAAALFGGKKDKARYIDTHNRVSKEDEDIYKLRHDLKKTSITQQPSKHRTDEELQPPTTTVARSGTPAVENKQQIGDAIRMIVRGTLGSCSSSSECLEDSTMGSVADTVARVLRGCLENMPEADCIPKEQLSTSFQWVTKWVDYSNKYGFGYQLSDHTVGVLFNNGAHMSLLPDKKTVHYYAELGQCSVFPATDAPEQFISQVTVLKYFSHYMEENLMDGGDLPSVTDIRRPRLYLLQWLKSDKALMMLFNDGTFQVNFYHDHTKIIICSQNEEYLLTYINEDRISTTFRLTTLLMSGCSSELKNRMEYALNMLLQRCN

CCN(CC)CCCCNc1ncc2cc(-c3cc(OC)cc(OC)c3)c(NC(=O)NC(C)(C)C)nc2n1
% of control [1]: 100% | % of control [2]: 100%

COc1cc(N(C)c2ccnc3ccc(C(F)(F)F)cc23)cc(OC)c1OC
% binding [3]: 91%

CCC(=O)N1CCN(c2ccc(-n3c(=O)ccc4cnc5ccc(-c6cnc7ccccc7c6)cc5c43)cc2C(F)(F)F)CC1
% of control [4]: 79% | % of control [5]: 100%

CN(C(=O)c1cnn2cccnc12)c1cc2c(cc1N1CCOCC1)C(=O)N(C[C@@H](F)C(C)(C)O)C2
dTM [6]: -0.7 K

O=C(NOC[C@H](O)CO)c1ccc(F)c(F)c1Nc1ccc(I)cc1F
% of control [7]: 100% | % of control [8]: 78%

Cc1cc([C@@H](C)Nc2ccccc2C(=O)O)c2nc(N3CCOCC3)cc(=O)n2c1 [AZD-6482]
% of control [9]: 100%

CC[C@@H]1[C@H](F)C(=O)N[C@@H]1COc1nccc2cc(C(N)=O)c(OC)cc12 [ZIMLOVISERTIB]
% of inhibition [10]: 4.6%

COc1cc(C(=O)N2CC[C@@H](O)[C@@H](N)C2)cc2nc(-c3cc4ccccc4n3CC3CC3)n(C)c12
pXC50 (D(2) dopamine receptor): 4.6 M

CNC(=O)Nc1ccc(-c2nc(N3CC4CCC(C3)O4)c3cnn(C4CCC5(CC4)OCCO5)c3n2)cc1
% of control [11]: 100%

Cc1cc(F)c(C(=O)Nc2cccc(-c3nncn3C(C)C)n2)cc1-n1cnc(C2CC2)c1
% of control [12]: 97% | % of control [13]: 100%

COCC(=O)NC/C=C/c1ccc2ncnc(Nc3ccc(Oc4ccc(C)nc4)c(C)c3)c2c1 [CP-724714]
% of control [14]: 87%

C=CC(=O)Nc1cc(-n2c(=O)ccc3cnc4ccc(-c5ccc(NS(C)(=O)=O)cc5)cc4c32)ccc1C
% of control ([15]; at 1 µM): 100% | % of control ([15]; at 10 µM): 79% | % of control ([16]; at 1 µM): 100% | % of control ([16]; at 10 µM): 74%

CC[C@@H](Nc1c(C#N)c(-c2ccc(-c3cccc(C)c3F)cc2)nc2cnccc12)C(=O)O [BAY-091]
% of inhibition [17]: 24.9%

CN(C)C/C=C/C(=O)Nc1ccc(C(=O)N2CCCC(Nc3ncc(Cl)c(-c4c[nH]c5ccccc45)n3)C2)cc1 (stereo unspecified)
% of control [18]: 100%
